In US20230382926A1, “COMPOUNDS AND USES THEREOF” (The University of The West Indies, priority 2022, published 2023):

How the values were obtained:
K. pneumoniae = test: Rescue concentration of substituted phenyl azaindole derivatives; type: cell-based; conditions: for Rescue concentration, K. pneumoniae Ciprofloxacin (1 μg/mL): Ciprofloxacin fixed at 1 μg/mL; for Rescue concentration, K. pneumoniae Imipenem (1 μg/mL): Imipenem fixed at 1 μg/mL
How it was run: (§1)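 Modified checkerboard MIC: fixed CLSI susceptible-breakpoint antibiotic concentration plus twofold dilution series of SP-azaBIM, 10^6 CFU/ml in ca-MHB, 35° C, 24 h aerobic. Only antibiotics to which the strain was resistant were tested. Rescue concentration = lowest compound concentration giving 99.99% growth reduction (visual) at breakpoint.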

P. aeruginosa = test: as above; type: cell-based; conditions: Imipenem fixed at 1 μg/mL
How it was run: as §1

[1] = test system: Carbapenem resistant Acinetobacter baumannii; test: Broth microdilution minimum inhibitory concentration; type: cell-based; conditions: compound alone
How it was run: (§2)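 Broth microdilution followed CLSI M07-A10, using 11 two-fold dilutions (top 1028 μg/mL, 2% DMSO final) and an inoculum of 2×10^5 to 8×10^5 CFU/mL. Wells were scored visually. MIC is the lowest concentration with no growth, tested in duplicate.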

[2] = test system: Methicillin resistant Staphylococcus aureus; test: as above; type: cell-based; conditions: compound alone
How it was run: as §2

[3] = test system: Carbapenem resistant Klebsiella pneumoniae; test: as above; type: cell-based; conditions: compound alone
How it was run: as §2

[4] = test system: Multidrug resistant Pseudomonas aeruginosa; test: as above; type: cell-based; conditions: compound alone
How it was run: as §2

[5] = test system: Vancomycin resistant Enterococcus faecalis; test: as above; type: cell-based; conditions: compound alone
How it was run: as §2

[6] = test system: Escherichia coli ATCC 35150; test: Rescue concentration, modified checkerboard MIC adjuvant assay; type: cell-based; conditions: E. coli ATCC 35150; for Rescue concentration, Cip (0.25): Cip at susceptible breakpoint 0.25 μg mL^−1; for Rescue concentration, Col (8): Col at susceptible breakpoint 8 μg mL^−1; for Rescue concentration, Dox (4): Dox at susceptible breakpoint 4 μg mL^−1; for Rescue concentration, Imi (1): Imi at susceptible breakpoint 1 μg mL^−1; for Rescue concentration, Amp (8): Amp at susceptible breakpoint 8 μg mL^−1; for Rescue concentration, Gen (4): Gen at susceptible breakpoint 4 μg mL^−1
How it was run: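 Modified checkerboard: fixed breakpoint antibiotic (CLSI M100 ED31) + 2-fold compound dilutions; ca-MHB, 10^6 CFU/ml; 35° C., 24 h, aerobic; visual read; value = min compound conc. giving 99.99% kill at breakpoint.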

[7] = test system: Streptococcus pneumoniae ATCC 49619; test: as above; type: cell-based; conditions: S. pneumoniae ATCC 49619; for Rescue concentration, Amox (2): Amox at susceptible breakpoint 2 μg mL^−1; for Rescue concentration, Ery (0.25): Ery at susceptible breakpoint 0.25 μg mL^−1; for Rescue concentration, Imi (0.12): Imi at susceptible breakpoint 0.12 μg mL^−1
MRSA = test: Rescue concentration of substituted phenyl azaindole derivatives; type: cell-based, Staphylococcus aureus; conditions: Amoxicillin fixed at 2 μg/mL
How it was run: as §1

| Structure (SMILES) | Rescue concentration, K. pneumoniae Ciprofloxacin (1 μg/mL) (K. pneumoniae) [µg/mL] | Rescue concentration, K. pneumoniae Imipenem (1 μg/mL) (K. pneumoniae) [µg/mL] | Rescue concentration, P. aeruginosa Imipenem (1 μg/mL) (P. aeruginosa) [µg/mL] | MIC [1] [µg/mL] | MIC [2] [µg/mL] | MIC [3] [µg/mL] | MIC [4] [µg/mL] | MIC [5] [µg/mL] | Rescue concentration, Cip (0.25) [6] [µg/mL] | Rescue concentration, Col (8) [6] [µg/mL] | Rescue concentration, Dox (4) [6] [µg/mL] | Rescue concentration, Imi (1) [6] [µg/mL] | Rescue concentration, Amox (2) [7] [µg/mL] | Rescue concentration, Ery (0.25) [7] [µg/mL] | Rescue concentration, Imi (0.12) [7] [µg/mL] | Rescue concentration, MRSA Amoxicillin (2 μg/mL) (MRSA) [µg/mL] | Rescue concentration, Amp (8) [6] [µg/mL] | Rescue concentration, Gen (4) [6] [µg/mL] |
| --- | --- | --- | --- | --- | --- | --- | --- | --- | --- | --- | --- | --- | --- | --- | --- | --- | --- | --- |
| Brc1ccc(C(c2c[nH]c3cnccc23)c2c[nH]c3cnccc23)cc1 [SP-6azaBIM 125, 3,3′-((4-bromophenyl)methylene)bis(1H-pyrrolo[2,3-c]pyridine)] | 4 | 4 | 32 | < 1020 | < 1020 | < 1020 | < 1020 | < 1020 | 8 | 2 | 32 | 4 | >128 | >128 | >128 | 0.5 |  |  |
| Oc1ccc(C(c2c[nH]c3cnccc23)c2c[nH]c3cnccc23)cc1 [SP-6azaBIM 136, 4-(bis(1H-pyrrolo[2,3-c]pyridin-3-yl)methyl)phenol] | <256 | <256 | 256 | < 1020 | < 1020 | < 1020 | < 1020 | < 1020 | 16 |  | 4 | 4 | >128 | >128 | >128 | 8 | 8 |  |
| Brc1ccc(C(c2c[nH]c3ncccc23)c2c[nH]c3ncccc23)cc1 [SP-7azaBIM 126, 3,3′-((4-bromophenyl)methylene)bis(1H-pyrrolo[2,3-b]pyridine)] |  |  |  |  |  |  |  |  | >128 | >128 | >128 | >128 | >128 | >128 | >128 |  | >128 | >128 |
| Oc1ccc(C(c2c[nH]c3ncccc23)c2c[nH]c3ncccc23)cc1 [SP-7azaBIM 135, 4-(bis(1H-pyrrolo[2,3-b]pyridin-3-yl)methyl)phenol] |  |  |  |  |  |  |  |  | >128 |  | >128 | 64 | >128 | >128 | >128 |  | >128 | >128 |
